From PubChem BioAssay (NCI)
≈ marks a conversion by molar mass, not a printed value. Where “and” joins values, the source holds several entries; their conditions need not be identical. Equal entries are not always repeated.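 Five concentrations, 48 hours, 96-well plates. Here, GI50 denotes the concentration required for 50% inhibition of growth. TGI marks complete inhibition of growth.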

How the values were obtained:
Experiment in all cases: DTP human tumour cell line panel, 48 h
[1] = tested on: PC-3 prostate
[2] = tested on: NCI-H23 lung
[3] = tested on: SK-MEL-2 melanoma
[4] = tested on: CAKI-1 renal
[5] = tested on: SNB-19 CNS
[6] = tested on: K-562 leukemia
[7] = tested on: U251 CNS
[8] = tested on: SW-620 colon
[9] = tested on: KM12 colon
[10] = tested on: SN12C renal

| Compound | TGI [1] | TGI [2] [µM] | TGI [3] [µM] | TGI [4] [µM] | TGI [5] [µM] | TGI [6] [µM] | TGI [7] [µM] | TGI [8] [µM] | TGI [9] [µM] | TGI [10] [µM] | GI50 [3] [µg/mL] |
| --- | --- | --- | --- | --- | --- | --- | --- | --- | --- | --- | --- |
| c1ccc(CSC2(SCc3ccccc3)CCCCC2)cc1 | > 10 µM | > 10 | > 10 | > 10 | > 10 | > 10 | > 10 | > 10 | > 10 | > 10 | – |
| COc1ccc(NC(=S)c2ccoc2C)cc1CC(=O)OC(C)C | 62.3 µM | > 100 | 40.6 | > 100 | > 100 | > 100 | > 100 | > 100 | > 100 | > 100 | – |
| O=C(N/N=C/c1ccccc1)c1cccc2nc3ccccc3nc12 | > 100 µM | > 69.2 | > 100 | > 100 | > 100 | > 100 | > 100 | > 100 | > 100 | > 100 | – |
| CCOP(=O)(OCC)OC1c2[nH]cc(C(=O)OCc3ccccc3)c2-c2cc(C(=O)OC)[nH]c2C1OC (centres undefined) | > 100 µM | > 100 | > 76.5 | > 100 | > 100 | > 100 | > 96.6 | > 100 | > 92.6 | > 100 | – |
| Cn1cc(-c2csc(-c3cn(C)c4ccccc34)n2)c2ccccc21 | 89.8 µM | > 100 | > 100 | > 100 | > 100 | 31.9 | > 100 | > 100 | > 100 | > 100 | – |
| CCOC(=O)c1c(NC(=S)Nc2ccccc2)sc2c1CCOC2 | > 100 µM | > 100 | > 100 | > 100 | > 100 | > 100 | > 100 | > 100 | > 100 | > 100 | – |
| CC(=O)OC(Cc1c(O)c2c(C)cccc2oc1=O)C(C)(C)O (centres undefined) | > 100 µM | > 100 | > 100 | > 100 | > 100 | > 100 | > 100 | > 100 | > 100 | > 100 | – |
| CC(Cl)CC(=O)OCC1CCCN2CCCCC12 (centres undefined) | > 100 µM | > 100 | > 100 | > 100 | > 100 | > 100 | > 100 | > 100 | > 100 | > 100 | – |
| N#Cc1c(O)c(/C=N/c2ncccn2)c(=O)n2c1[nH]c1ccccc12 | > 100 µM | > 100 | > 100 | > 100 | > 100 | > 100 | > 100 | > 100 | > 100 | > 100 | – |
| CC1C(C#N)(C#N)C(C#N)=C(N)C1(Cl)[N+](=O)[O-] (centres undefined) | 32.9 µM | 35.3 | 58 | 18.6 | 35 | > 100 | 34.4 | 4.46 | 34.4 | 20.9 | – |
| C#CC1(O)CCCCCCCCC2(CCCCCCCC1)OCCO2 | 25.9 µM | 33.9 | 27.9 | 24.7 | 33 | 43.6 | 30.8 | 34.7 | 34.6 | 31.5 | – |
| COc1ccc(-c2c(C#N)c(S)n(NS(=O)(=O)c3ccccc3)c(=O)c2C#N)cc1 | > 100 µM | > 100 | > 100 | > 100 | > 100 | > 100 | > 100 | > 100 | > 100 | > 100 | – |
| O=C(c1ccccc1)N1C(=S)N(c2ccccn2)C(=Nc2ccccc2)C1=Nc1ccccc1 | 35.8 µM | > 36.5 | 34.6 | 43.8 | > 96.2 | > 60.9 | 39.6 | > 65.6 | 19 | > 100 | – |
| CCOC(=O)/C=C(/C)Nc1nc2c(c(C(=O)OC)c1C#N)CCCC2 | > 100 µM | > 100 | > 100 | > 100 | > 100 | > 100 | > 100 | > 100 | > 100 | > 100 | – |
| CC(=O)OC(C)(C)CCC(=O)[C@](C)(O)[C@H]1[C@H](O)C[C@@]2(C)[C@@H]3CCc4c(cc(OC5OC(CO)C(O)C(O)C5O)c(O)c4C)C3(C)C(=O)C[C@]12C (some centres undefined) | > 100 µM | > 100 | > 100 | > 100 | > 100 | > 100 | > 100 | > 100 | > 100 | > 100 | – |
| CC1(C)[C@@H]2C[C@H]1c1cnc(-c3ccccn3)cc1C2CCCCC[C@@H]1c2cc(-c3ccccn3)ncc2[C@@H]2C[C@H]1C2(C)C (some centres undefined) | > 100 µM | – | > 88.6 | > 30.3 | > 100 | > 100 | > 100 | > 100 | > 100 | > 44.9 | – |
| C=C1C[C@H](O)[C@H](Br)C(C)(C)C12CCC(C)(Cl)C(Br)C2 (some centres undefined) | 1.77 µM | 7.98 | 6.55 | 24.5 | 10.4 | 56.2 | 8.91 | 20.4 | 9.88 | 14.8 | – |
| CC1(C)N=C(C2CCCN2C(=O)OCc2ccccc2)OC1=O (centres undefined) | > 100 µM | > 100 | > 100 | > 100 | > 100 | > 100 | > 100 | > 100 | > 100 | > 100 | – |
| CCOc1ccc(N/C(=C(/C(Cl)=C(/Cl)NC(C)(C)C)[N+](=O)[O-])n2nnc3ccccc32)cc1 | 83.5 µM | 55.6 | > 100 | 35.3 | > 100 | > 100 | 35.1 | 41.9 | 61.7 | > 100 | – |
| ON=C(CC(O)(C(F)(F)Cl)C(F)(F)Cl)CC(O)(C(F)(F)Cl)C(F)(F)Cl | > 10 µM | > 10 | 7.84 | > 10 | > 10 | > 10 | > 10 | > 10 | > 10 | > 10 | – |
| O=c1oc2c(Cl)cc(Cl)cc2cc1C1=CSC2=NCCN12 | > 100 µM | > 100 | > 100 | > 100 | > 100 | > 100 | > 100 | > 100 | > 100 | > 100 | – |

| Compound | TGI [1] | TGI [2] [µM] | TGI [3] [µM] | TGI [4] [µM] | TGI [5] [µM] | TGI [6] [µM] | TGI [7] [µM] | TGI [8] [µM] | TGI [9] [µM] | TGI [10] [µM] | GI50 [3] [µg/mL] |
| --- | --- | --- | --- | --- | --- | --- | --- | --- | --- | --- | --- |
| O=C(c1ccc(Cl)cc1)N(C(=S)OCCOc1ccccc1)c1ccccc1 | 56.7 µM | 36.2 | 45.7 | 41.2 | 42.8 | > 100 | 29.7 | 41.2 | 39.4 | 39.3 | – |
| CSc1nc2c(c(=O)[nH]1)N=C(c1ccccc1)CC(c1ccccc1)N2 (centres undefined) | > 100 µM | 98.2 | 76.7 | > 100 | > 100 | 68.4 | > 100 | > 100 | 29.2 | 56.6 | – |
| CCOC(=O)C(Cl)(NC(=O)OCc1ccccc1)C(F)(F)F (centres undefined) | > 100 µM | > 100 | > 100 | > 100 | > 100 | > 100 | > 100 | > 100 | > 100 | > 100 | – |
| CC[C@@]1(O)C(=O)OCc2c1cc1n(c2=O)Cc2c-1nc1ccccc1c2/C=N/NC(=O)c1ccc(N)cc1 | > 100 µM | 1.48 | > 100 | 5.06 | > 100 | > 31.6 | 7.63 | > 100 | > 75.9 | 16.2 | – |
| O=C1CC(=O)NC(=NNS(=O)(=O)c2ccc(Cl)cc2)N1 | > 100 µM | > 100 | > 100 | > 100 | > 100 | > 100 | > 100 | > 100 | > 100 | > 100 | – |
| O=C(c1cc2c(c3ccccc13)NC1(CCCCC1)N=C2C(F)(F)F)C(F)(F)F | 12.4 µM | 12.5 | 5.87 | 13.1 | 18.7 | 16.8 | 13.9 | 18.7 | 14.2 | 13.2 | – |
| Cc1ccc(C(=O)N/N=C(\N=Nc2ccc(C(=O)O)cc2)c2ccc(N(CCC#N)CCC#N)cc2C)cc1 | > 100 µM | > 100 | > 100 | > 100 | > 100 | > 100 | > 100 | > 100 | > 100 | > 100 | – |
| CNc1nc(C(N)=O)c(N)s1 | > 100 µM | > 100 | > 100 | > 100 | > 100 | > 100 | > 100 | > 100 | > 100 | > 100 | – |
| Cc1ccc(Nc2nc3c(=O)n(C)c(=O)n(C)c3nc2Nc2ccc(C)cc2)cc1 | 27.9 µM | 31.2 | 33.5 | 30.4 | > 100 | > 100 | 29.9 | 4.04 | 34.5 | 30.5 | – |
| COc1cc2c(c(OC)c1OC)-c1ccc(SC)cc1C(O)CC2 (centres undefined) | > 100 µM and 63.9 µg/mL | > 100 | > 100 | 15.7 | > 100 | < 0.01 | – | > 100 | < 0.01 | 23.6 | 27.4 (≈ 79.2 µM) |
| Cc1nc2sccn2c1/C=C1/C(=O)Nc2cccc(Cl)c21 | > 100 µM | > 100 | > 100 | > 100 | > 100 | > 100 | > 100 | > 100 | > 100 | > 100 | – |
| CCOC(=O)NN(C(=O)OCC)c1c(C)cc(C)cc1C | > 100 µM | > 100 | > 100 | > 100 | > 100 | > 100 | > 100 | > 100 | > 100 | > 100 | – |
| CN(C)Cc1cc(N=Nc2ccc(Cl)cc2)cc(CN(C)C)c1O | 18.8 µM | 40.7 | 27.8 | 26.8 | 25.5 | 6.75 | 19.8 | 21.1 | 20.7 | 23.8 | – |
| CC(C)Oc1c(-c2ccc(F)cc2)c(O)c2c3c1oc(=O)n3C=CC2C (centres undefined) | 31.7 µM | 24.6 | 53.3 | 27.5 | 31.9 | 39.6 | 30.3 | 28.5 | 34.3 | 23.8 | – |
| O=C1CC(NCc2ccccc2)c2c(Cl)sc(Cl)c21 (centres undefined) | 43 µM | 39.5 | 51.5 | 53 | > 100 | > 100 | 43.4 | > 87.4 | > 93.2 | 58 | – |
| COC(=O)/C=C1/OC(c2ccc(OC)cc2)=C(Cl)C1=O | 28.9 µM | 34.9 | 33.6 | 27 | 52.8 | 11.3 | 22.4 | 28.1 | 36.4 | 40.4 | – |
| CCOC(=O)c1nnc2c(C#N)c(-c3ccccc3)c(C)n2c1N | > 100 µM | > 100 | > 100 | > 100 | 89.2 | > 100 | > 100 | > 100 | > 100 | > 100 | – |
| O=C(OCCNC(=O)N1CC1)OCCNC(=O)N1CC1 | > 10 µM | > 10 | > 10 | > 10 | > 10 | > 10 | > 10 | > 10 | > 10 | > 10 | – |
| CC(C)N(C(C)C)S(=O)(=O)C[C@]12CC[C@H](CC13OCC(CS(=O)(=O)c1ccccc1)O3)C2(C)C (some centres undefined) | > 100 µM | > 100 | > 100 | > 100 | > 100 | > 100 | > 100 | > 100 | > 100 | > 100 | – |
| ClCCCCCc1c2nc(c(CCCCCCl)c3ccc([nH]3)c(CCCCCCl)c3ccc([nH]3)c(CCCCCCl)c3nc1C=C3)C=C2 | > 100 µM | > 100 | > 100 | > 100 | > 100 | > 100 | > 100 | > 100 | > 100 | > 100 | – |
| c1ccc([I+]c2ccccc2)cc1 | > 100 µM | > 100 | > 100 | > 100 | > 100 | > 100 | > 100 | > 100 | > 100 | > 100 | – |
